{"source": "PubChem BioAssay AID2060490", "about": "(Molecular Pharmacology Branch, DTP, NCI, 2025)", "test_system": "885512-296-R-J2-PDC complex spheroid viability", "test": "Anticancer human tumor 885512-296-R-J2-PDC patient-derived breast carcinoma cell line growth inhibition [GQUAD]", "conditions": "for viability, T/C: stronger effect = lower value", "excerpt": "DNA G-quadruplex Stabilizer Agents in Combinations in Complex Spheroids\nA high-throughput screen of multi-cell type tumor spheroids was designed to identify active combinations of DNA G-quadruplex stabilizer agents and targeted small molecules. Complex spheroids include a stromal component modeled by human endothelial cells (HUVEC) and fibroblasts modeled by human mesenchymal stem cells (MSCs). The concentration ranges selected for each drug and investigational agent were based upon clinically achievable concentrations if the clinical Cmax of the agent was known.\nCompounds. The drugs and investigational agents: pidnarulex (CX-5461; NSC782164), APTO-253 (NSC789042), BRACO-19 (NSC847499), peposertib (NSC802822), ceralasertib (NSC780249), elimusertib (NSC800525), camonsertib (NSC841442), AZD-1390 (NSC803789), olaparib (NSC753686), talazoparib (NSC767125), ART-558 (NSC835418), sotorasib (NSC818433), MRTX-1133 (NSC836407), SN-38 (NSC673596), topotecan (NSC609699), etoposide (NSC141540), doxorubicin (NSC123127), gemcitabine (NSC613327), 5-fluorouracil (NSC19893), paclitaxel (NSC125973), vemurafenib (NSC761431), panobinostat (NSC761190), R-306465 (JNJ-16241199; NSC773264), adavosertib (NSC754352), TP-3654 (NSC805149), carboplatin (NSC241240), KSQ-4279 (NSC840948), and staurosporine (NSC755774) were obtained from the National Cancer Institute (NCI) Developmental Therapeutics Program Chemical Repository (34). The FDA-approved anticancer drug set is available from the NCI Developmental Therapeutics Program. […] The stock solutions were prepared in dimethyl sulfoxide (DMSO, Sigma-Aldrich, St. Louis, MO, cat. D2650) at 800-fold the tested concentration and stored at -70 degrees C prior to their use. All drugs and investigational agents were tested over a range starting from a high concentration at or near the clinical Cmax and decreasing in half-log increments. If the clinical Cmax for an agent had not been determined, the highest concentration tested was 10 microM.\n2.3 Cell Culture. All cells were maintained in an incubator at 37 degrees C and 5% CO2 with 95% humidity. The PDC lines were cultured according to standard operating procedures established by the NCI PDMR. All PDCs were thawed and cultured in Matrigel-coated flasks prepared with a working solution of 1X Ham's F-12 nutrient mix, without supplementation (Invitrogen, cat. 11765054), 100 U/mL penicillin-streptomycin (Invitrogen, cat. 15140122), and 2.5% Matrigel (Corning Inc., cat. 354248) for the first three passages. The 857933-349-R-J2-PDC line was cultured in 6C/Colon 1B media, which includes advanced DMEM/F-12 (Thermo Fisher Scientific, cat. 12634028), 10 mM HEPES (Thermo Fisher Scientific, cat. 15630080), 1X GlutaMAX supplement (Thermo Fisher Scientific, cat. 35050061), 0.1 mg/mL primocin (InvivoGen, cat. ant-pm-2), 10% defined fetal bovine serum, heat inactivated (HyClone Laboratories Inc., cat. SH30070.03HI), 50% L-WRN conditioned media (ATCC, cat. CRL-3276), 1.25 mM N-Acetyl-L-cysteine (Sigma-Aldrich, cat. A9165), 10 mM nicotinamide (Sigma-Aldrich, cat. N0636), 1X B-27 supplement (Thermo Fisher Scientific, cat. 17504044), 1X N-2 supplement (Thermo Fisher Scientific, cat. 17502048), 10 microM Y-27632 dihydrochloride (Tocris Bioscience, cat. 1254), and 50 ng/mL human EGF recombinant protein (Thermo Fisher Scientific, cat. PHG0311). The 485176-168-R4-J1-PDC line was cultured in Panc media, which includes all 6C/Colon 1B media components plus 100 ng/mL human FGF-10 (Thermo Fisher Scientific, cat. 100-26), 500 nM SB-431542 (Selleckchem, cat. S1067), and gastrin (Tocris, cat. 3006).\n[…]", "note": "Several values for one entry are separate records, joined by “and”; a condition that tells them apart may be missing. Equal entries are not always repeated.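 Further: spheroids exposed to the compounds for one week.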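 Wherever viability, T/C is given: percent of tumor spheroid viability relative to DMSO vehicle control wells.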", "data": [{"smiles": "CC1COCCN1c1cc(C2(S(C)(=N)=O)CC2)nc(-c2ccnc3[nH]ccc23)n1", "note": "(centres undefined) + Cc1cnc(CNC(=O)c2c(=O)c3ccc(N4CCCN(C)CC4)nc3n3c2sc2ccccc23)cn1", "values": [{"measurement": "IC50", "setting": "curve of first compound, second compound 0.0316 µM", "value": 367, "unit": "nM"}, {"measurement": "IC50", "setting": "curve of first compound, second compound 0.1 µM", "value": 92.8, "unit": "nM"}, {"measurement": "IC50", "setting": "curve of first compound, second compound 0.316 µM", "value": "< 31.6", "unit": "nM"}, {"measurement": "IC50", "setting": "curve of first compound, second compound 1 µM", "value": "< 31.6", "unit": "nM"}, {"measurement": "IC50", "setting": "curve of first compound, second compound 3.16 µM", "value": "< 31.6", "unit": "nM"}, {"measurement": "IC50", "setting": "curve of first compound, second compound 10 µM", "value": "< 31.6", "unit": "nM"}, {"measurement": "viability, T/C", "setting": "second compound 0.0316 µM, first compound 0.0316 µM", "value": 73.9, "unit": "%"}, {"measurement": "viability, T/C", "setting": "second compound 0.0316 µM, first compound 0.1 µM", "value": 66.2, "unit": "%"}, {"measurement": "viability, T/C", "setting": "second compound 0.0316 µM, first compound 0.316 µM", "value": 55.8, "unit": "%"}, {"measurement": "viability, T/C", "setting": "second compound 0.0316 µM, first compound 1 µM", "value": 15.9, "unit": "%"}, {"measurement": "viability, T/C", "setting": "second compound 0.0316 µM, first compound 3.16 µM", "value": 4.2, "unit": "%"}, {"measurement": "viability, T/C", "setting": "second compound 0.0316 µM, first compound 10 µM", "value": 3.7, "unit": "%"}, {"measurement": "viability, T/C", "setting": "second compound 0.1 µM, first compound 0.0316 µM", "value": 63.4, "unit": "%"}, {"measurement": "viability, T/C", "setting": "second compound 0.1 µM, first compound 0.1 µM", "value": 47.5, "unit": "%"}, {"measurement": "viability, T/C", "setting": "second compound 0.1 µM, first compound 0.316 µM", "value": 31.3, "unit": "%"}, {"measurement": "viability, T/C", "setting": "second compound 0.1 µM, first compound 1 µM", "value": 11.4, "unit": "%"}, {"measurement": "viability, T/C", "setting": "second compound 0.1 µM, first compound 3.16 µM", "value": 5.24, "unit": "%"}, {"measurement": "viability, T/C", "setting": "second compound 0.1 µM, first compound 10 µM", "value": 3.6, "unit": "%"}, {"measurement": "viability, T/C", "setting": "second compound 0.316 µM, first compound 0.0316 µM", "value": 25.2, "unit": "%"}, {"measurement": "viability, T/C", "setting": "second compound 0.316 µM, first compound 0.1 µM", "value": 19.2, "unit": "%"}, {"measurement": "viability, T/C", "setting": "second compound 0.316 µM, first compound 0.316 µM", "value": 19.4, "unit": "%"}, {"measurement": "viability, T/C", "setting": "second compound 0.316 µM, first compound 1 µM", "value": 8.96, "unit": "%"}, {"measurement": "viability, T/C", "setting": "second compound 0.316 µM, first compound 3.16 µM", "value": 4.98, "unit": "%"}, {"measurement": "viability, T/C", "setting": "second compound 0.316 µM, first compound 10 µM", "value": 4.66, "unit": "%"}, {"measurement": "viability, T/C", "setting": "second compound 1 µM, first compound 0.0316 µM", "value": 19.8, "unit": "%"}, {"measurement": "viability, T/C", "setting": "second compound 1 µM, first compound 0.1 µM", "value": 20.2, "unit": "%"}, {"measurement": "viability, T/C", "setting": "second compound 1 µM, first compound 0.316 µM", "value": 17.1, "unit": "%"}, {"measurement": "viability, T/C", "setting": "second compound 1 µM, first compound 1 µM", "value": 8.13, "unit": "%"}, {"measurement": "viability, T/C", "setting": "second compound 1 µM, first compound 3.16 µM", "value": 4.36, "unit": "%"}, {"measurement": "viability, T/C", "setting": "second compound 1 µM, first compound 10 µM", "value": 4.77, "unit": "%"}, {"measurement": "viability, T/C", "setting": "second compound 3.16 µM, first compound 0.0316 µM", "value": 25.1, "unit": "%"}, {"measurement": "viability, T/C", "setting": "second compound 3.16 µM, first compound 0.1 µM", "value": 18.4, "unit": "%"}, {"measurement": "viability, T/C", "setting": "second compound 3.16 µM, first compound 0.316 µM", "value": 17, "unit": "%"}, {"measurement": "viability, T/C", "setting": "second compound 3.16 µM, first compound 1 µM", "value": 4.84, "unit": "%"}, {"measurement": "viability, T/C", "setting": "second compound 3.16 µM, first compound 3.16 µM", "value": 3.04, "unit": "%"}, {"measurement": "viability, T/C", "setting": "second compound 3.16 µM, first compound 10 µM", "value": 3.44, "unit": "%"}, {"measurement": "viability, T/C", "setting": "second compound 10 µM, first compound 0.0316 µM", "value": 0.12, "unit": "%"}, {"measurement": "viability, T/C", "setting": "second compound 10 µM, first compound 0.1 µM", "value": 0.18, "unit": "%"}, {"measurement": "viability, T/C", "setting": "second compound 10 µM, first compound 0.316 µM", "value": 0.22, "unit": "%"}, {"measurement": "viability, T/C", "setting": "second compound 10 µM, first compound 1 µM", "value": 0.19, "unit": "%"}, {"measurement": "viability, T/C", "setting": "second compound 10 µM, first compound 3.16 µM", "value": 0.24, "unit": "%"}, {"measurement": "viability, T/C", "setting": "second compound 10 µM, first compound 10 µM", "value": 0.23, "unit": "%"}]}, {"smiles": "Cc1cccc(N(C)C(=O)C2C(O)CCN2c2nc(C)cc(C(F)(F)F)c2C#N)c1", "note": "(centres undefined)", "values": [{"measurement": "viability, T/C", "setting": "compound 0.0316 µM", "value": "104% and 98.3% and 102%"}, {"measurement": "viability, T/C", "setting": "compound 0.1 µM", "value": "100% and 104% (2×)"}, {"measurement": "viability, T/C", "setting": "compound 0.316 µM", "value": "91.8% and 93.8% and 104%"}, {"measurement": "viability, T/C", "setting": "compound 1 µM", "value": "97.2% and 103% and 105%"}, {"measurement": "viability, T/C", "setting": "compound 3.16 µM", "value": "97.8% and 113% and 97.5%"}, {"measurement": "viability, T/C", "setting": "compound 10 µM", "value": "85% and 79.4% and 86.6%"}, {"measurement": "IC50", "setting": "curve of compound", "value": "> 10000", "unit": "nM"}]}, {"smiles": "COc1cccc2c1C(=O)c1c(O)c3c(c(O)c1C2=O)CC(O)(C(=O)CO)CC3OC1CC(N)C(O)C(C)O1", "note": "(centres undefined)", "values": [{"measurement": "viability, T/C", "setting": "compound 0.0316 µM", "value": "87.2% and 85.7% and 88.6%"}, {"measurement": "viability, T/C", "setting": "compound 0.1 µM", "value": "44.6% and 31.4% and 27.5%"}, {"measurement": "viability, T/C", "setting": "compound 0.316 µM", "value": "23.1% and 20.1% and 23.4%"}, {"measurement": "viability, T/C", "setting": "compound 1 µM", "value": "5.91% and 6.03% and 8.79%"}, {"measurement": "viability, T/C", "setting": "compound 3.16 µM", "value": "0.33% and 0.51% and 0.46%"}, {"measurement": "viability, T/C", "setting": "compound 10 µM", "value": "2.28% and 1.5% and 4.09%"}, {"measurement": "IC50", "setting": "curve of compound", "value": "88.8 nM and 70.9 nM and 70 nM"}]}, {"smiles": "CC1COCCN1c1cc(C2(S(C)(=N)=O)CC2)nc(-c2ccnc3[nH]ccc23)n1", "note": "(centres undefined)", "values": [{"measurement": "viability, T/C", "setting": "compound 0.0316 µM", "value": "103% (2×) and 99.8%"}, {"measurement": "viability, T/C", "setting": "compound 0.1 µM", "value": "106% and 90.2% and 88.9%"}, {"measurement": "viability, T/C", "setting": "compound 0.316 µM", "value": "98.9% and 83.5% and 84.4%"}, {"measurement": "viability, T/C", "setting": "compound 1 µM", "value": "43% and 40% and 30%"}, {"measurement": "viability, T/C", "setting": "compound 3.16 µM", "value": "5.74% and 6.03% and 4.64%"}, {"measurement": "viability, T/C", "setting": "compound 10 µM", "value": "4.07% and 4.55% and 4.14%"}, {"measurement": "IC50", "setting": "curve of compound", "value": "865 nM and 752 nM and 652 nM"}]}, {"smiles": "Cc1cnc(CNC(=O)c2c(=O)c3ccc(N4CCCN(C)CC4)nc3n3c2sc2ccccc23)cn1", "values": [{"measurement": "viability, T/C", "setting": "compound 0.0316 µM", "value": "86.1% [middle of 12 runs]"}, {"measurement": "viability, T/C", "setting": "compound 0.316 µM", "value": "28.4% [middle of 12 runs]"}, {"measurement": "viability, T/C", "setting": "compound 1 µM", "value": "26.3% [middle of 12 runs]"}, {"measurement": "viability, T/C", "setting": "compound 3.16 µM", "value": "27% [middle of 12 runs]"}, {"measurement": "viability, T/C", "setting": "compound 10 µM", "value": "0.17% [middle of 9 runs]"}, {"measurement": "IC50", "setting": "compound alone, run of 04/16/2024", "value": "166 nM [middle of 12 runs]"}]}]}
